Reference: patent US20240366521A1, “NANOPARTICLES AND METHODS OF USE” (Qana Therapeutics Inc., priority 2023, published 2024)

Assay: Solvent screen of MMAE
Format: physicochemical
Details: acetone, ethanol, and isopropanol
Method: A solvent screen of MMAE was conducted.

Q: Which “solubility of MMAE in solvent” value does the source give for CCC(C)C(C(CC(=O)N1CCCC1C(OC)C(C)C(=O)NC(C)C(O)c1ccccc1)OC)N(C)C(=O)C(NC(=O)C(NC)C(C)C)C(C)C (stereo not shown) [MMAE, monomethyl auristatin E] here?
A: good solubility
